Experiment [1] concerns the target T1, Mhp1 (Microbacterium maritypicum, UniProt D6R8X8).
T1 sequence (D6R8X8 1-489): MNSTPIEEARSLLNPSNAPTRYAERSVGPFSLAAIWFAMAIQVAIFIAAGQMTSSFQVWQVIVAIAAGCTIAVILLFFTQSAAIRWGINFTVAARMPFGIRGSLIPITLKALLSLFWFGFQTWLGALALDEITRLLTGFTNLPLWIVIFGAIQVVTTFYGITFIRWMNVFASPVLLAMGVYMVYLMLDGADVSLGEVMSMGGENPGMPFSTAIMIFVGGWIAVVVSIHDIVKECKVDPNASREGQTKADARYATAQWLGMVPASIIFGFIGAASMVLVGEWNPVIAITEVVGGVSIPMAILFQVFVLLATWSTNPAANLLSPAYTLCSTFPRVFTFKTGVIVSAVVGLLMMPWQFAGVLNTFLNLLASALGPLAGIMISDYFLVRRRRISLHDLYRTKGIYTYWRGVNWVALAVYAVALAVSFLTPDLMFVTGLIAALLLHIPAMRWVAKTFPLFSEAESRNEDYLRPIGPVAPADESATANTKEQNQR
Put plainly: stopped-flow tryptophan spectrophotofluorimetry. It is filed as binding. The arrangement: gene hyuP; full-length membrane protein expressed in E. coli BL21(DE3) from pSHP11; GFP-fusion purified for crystallography (details in supplement). The note with it: read-out: Apparent Kd. From the text:
stopped-flow tryptophan spectrophotofluorimetry on Mhp1

Experiment [2] addresses T1, Mhp1. Put plainly: inhibition of […]-L-IMH uptake into E. coli cells expressing Mhp1. It is filed as cell-based. As to conditions: read-out: Apparent IC5_0. The arrangement: gene hyuP; full-length membrane protein expressed in E. coli BL21(DE3) from pSHP11.
Experiment [3] concerns the target T2, Mhp1 (Microbacterium maritypicum, UniProt D6R8X8, L363A).
T2 construct: gene hyuP; full-length membrane protein expressed in E. coli BL21(DE3) from pSHP11; GFP-fusion purified for crystallography (details in supplement)
Briefly: uptake of […]-L-NMH into E. coli cells expressing mutant. The format is cell-based. The note with it: 50 μM labelled compound, 150 mM NaCl, pH 6.6, 15 s; not transported by wild type.

Data on seven compounds can be found in publication PMC4195764, “Molecular mechanism of ligand recognition by membrane transport protein, Mhp1” (The EMBO Journal, 2014).

As a reminder, the IC50 is the concentration that inhibits the measured activity by half.

T2 sequence (D6R8X8 whole entry L363A, the tested form may be a part): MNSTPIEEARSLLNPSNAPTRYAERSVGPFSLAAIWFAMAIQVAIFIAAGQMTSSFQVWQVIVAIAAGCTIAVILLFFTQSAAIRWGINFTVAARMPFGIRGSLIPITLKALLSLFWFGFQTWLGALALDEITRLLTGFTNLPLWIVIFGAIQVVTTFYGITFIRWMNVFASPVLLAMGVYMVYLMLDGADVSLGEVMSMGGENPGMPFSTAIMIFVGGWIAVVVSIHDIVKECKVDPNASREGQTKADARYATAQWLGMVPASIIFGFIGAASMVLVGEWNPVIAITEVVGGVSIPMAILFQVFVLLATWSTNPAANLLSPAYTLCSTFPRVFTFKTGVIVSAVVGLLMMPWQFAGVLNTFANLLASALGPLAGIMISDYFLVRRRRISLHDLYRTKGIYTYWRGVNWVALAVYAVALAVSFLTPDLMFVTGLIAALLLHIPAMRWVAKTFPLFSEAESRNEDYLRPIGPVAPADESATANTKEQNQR

As to `O=C1NC(=O)[C@H](Cc2ccccc2)N1` [L-BH, (5S)-5-benzylimidazolidine-2,4-dione], the Kd at Mhp1 [1] worked out at 36 ± 1.4 µM. At Mhp1 [2], the IC50 amounted to 945 ± 1.1 µM.
With `O=C1NC(=O)[C@@H](Cc2c[nH]c3ccccc23)N1` [D-IMH], the Kd on Mhp1 [1] stood at 20.6 ± 3.8 µM.
Consider `O=C1NC(=O)C(=Cc2cccc(Br)c2)N1` (stereo in doubt) [BVH, (5E)-5-[(3-bromophenyl)methylidene] imidazolidine-2,4-dione], for which the Kd on Mhp1 [1] stood at 2 ± 0.2 µM. The half-inhibitory concentration (IC50) on Mhp1 [2] is 38.8 ± 1.1 µM.
As for `O=C1NC(=O)[C@H](Cc2ccc3ccccc3c2)N1` [L-NMH, (5S)-5-(naphthalen-2-ylmethyl)imidazolidine-2,4-dione], the Kd on Mhp1 [1] came to 3.6 ± 0.8 µM. The “uptake of 14C-L-NMH into E. coli cells expressing mutant” value at Mhp1 [3] is “when Leu363 was mutated to an alanine, uptake was restored”. In addition, the concentration for half-maximal inhibition (IC50) at Mhp1 [2] was 14.9 ± 1.1 µM.
With `O=C1NC(=O)[C@@H](Cc2ccc3ccccc3c2)N1` [D-NMH], the Kd at Mhp1 [1] was determined as 1.8 ± 0.3 µM. Further, the IC50 at Mhp1 [2] was determined as 17.1 ± 1.1 µM.
With `O=C1NC(=O)[C@@H](Cc2ccccc2)N1` [D-BH], on Mhp1 [1], the Kd was determined as 130 ± 10 µM.
Take `O=C1NC(=O)[C@H](Cc2c[nH]c3ccccc23)N1` [L-IMH, (5S)-5-(1H-indol-3-ylmethyl)imidazolidine-2,4-dione]: the Kd on Mhp1 [1] is 19 ± 2 µM. In addition, the IC50 at Mhp1 [2] turned out to be 119.2 ± 1.1 µM.
